Values quoted from earlier work, collected in patent US11154542B2, “Nail lacquer composition containing ciclopirox” (GENUONE SCIENCES INC., priority 2015, dated 2021).

Tested on: fungus
Conditions: laboratory researches

Compound: CCC(C)(C)c1ccc(CC(C)CN2C[C@@H](C)O[C@@H](C)C2)cc1 (some centres unmarked) [amorolfine, Amorolfine]
- antifungal activity: low antifungal activity
- formation of spores that resist antifungal agents: effective in reducing the formation of spores
